The values below come from patent US10745397B2, “1-Substituted 1,2,3,4-tetrahydro-1,7-naphthyridin-8-amine derivatives and their use as EP4 receptor antagonists” (TAKEDA PHARMACEUTICAL COMPANY LIMITED, priority 2015, dated 2020).

For one experiment, the target named is T1, human EP4 receptor (Homo sapiens, UniProt P35408).
T1 construct: expressed in transfected cells; host or cells: FreeStyle293 (HEK293F) cells, transient transfection with pcDNA3.1(+), total membrane fraction
Nature of the experiment: hEP4 radioligand binding assay ([3H] PGE2 competitive binding, membrane fractions). The settings on record: 300 nM compound; 1 nM [3H] PGE2. From the text: The full-length coding sequences for human EP1 (NM_000955), human EP2 (NM_000956), human EP3 (NM_198717) and human EP4 (NM_000958) were cloned into pcDNA3.1(+) vector (Life Technologies, CA, USA). In order to prepare overexpressed EP 1-4 membrane in Freestyle293 cells (Life Technologies, CA, USA), the pcDNA3.1(+) vector encoding a cDNA of the relevant gene was transiently transfected into FreeStyle293 cells using 293Fectin (Life Technologies, CA, USA) according to the manufacturer instruction manual. After 2 days, cultured cells were centrifuged (1,000×g, 10 min, 4° C.) and pellets homogenized by a probe sonicator (Sonics vibracell, Sonics and Materials Inc., USA; 31% Amp, 5 sec pulse, Imin interval, 4 cycles) in ice-cold 50 mM Tris-HCl buffer (pH 7.5 at 25° C.) containing 0.5 mM EDTA, 250 mM Sucrose and 10 mM MgCl2. Cell homogenates were centrifuged (890×g, 10 min, 4° C.), and the supernatant was recovered. Total membrane fractions were isolated by ultracentrifugation (140,000×g, 60 min, 4° C.). Pellets were re-suspended in the same buffer, and stored at −80° C. until use. The protein concentration in homogenate was determined with the BCA Protein Assay Kit (Pierce Biotechnology, Inc., IL, USA) according to the manufacturer protocol.
The binding affinity of the compounds was evaluated using a competitive radioligand binding assay which measured the specific binding of [3H] PGE2 to the human EP4 receptor. Briefly, varying concentrations of NCEs were incubated with cell membrane fractions generated HEK293F cells transiently transfected with human EP4 receptor as described above. Each reaction consisted of 10 μg membrane protein and NCE in 50 mM Tris-HCl, pH-6.0 by NaOH, 10 mM MgCl2 and 0.5 mM EDTA assay buffer. Radioligand, [3H] PGE2 (American Radiochemicals Inc. Specific Activity 180 Ci/mmol), at a final of 1 nM was added to each reaction where the final assay volume was 200 μL and concentration of DMSO was adjusted to 1%. Appropriate controls included total binding in the assay (vehicle control) and control for non-specific binding. Non-specific binding was evaluated by incubating the hEP4 protein with 10 μM unlabeled PGE2 under the same assay conditions as NCEs. The reaction was incubated at room temperature for 2 hours and terminated by harvesting the reaction contents to a PEI coated GF/C filter plate (PerkinElmer). The plate was washed four times with cold 50 mM Tris-HCl, pH-7.5 wash buffer and dried at 50° C. for 2 hours or at 37° C. overnight. [3H] PGE2 bound to the protein was quantified by the addition of 25 μL of Microscint PS (PerkinElmer) and plate was read on MicroBeta2 liquid Scintillation and luminescence counter (PerkinElmer). Data was analyzed using GraphPad Prism 5 (GraphPad Software Inc., San Diego, Calif.) where non-specific binding was normalized to 0% specific binding of [3]PGE2 and vehicle control (DMSO) was normalized to 100% specific binding of [3]PGE2. Binding affinity of NCEs, Ki, was generated using One site—Fit Ki equation in GraphPad Prism 5.

Experiment [1] addresses T2, hEP4 (C6 glioma cells overexpressing hEP4) (Homo sapiens, UniProt P35408).
T2 construct: host or cells: C6 glioma cells overexpressing hEP4
Nature of the experiment: hEP4 cell based assay (cAMP), inhibition of PGE2 induced cAMP, HTRF. Particulars: 1 μM compound, PGE2 at EC80. Here is the method:
The functional assay for hEP4 activation and inhibition was carried out via the quantitative determination of agonist, PGE2, induced cAMP response using HTRF in a competitive immunoassay (Cisbio dynamic 2 kit). NCEs at varying concentrations were evaluated for inhibition of PGE2 induced increase in cAMP. Briefly, C6 glioma cells overexpressing hEP4 (Takeda) were cultured in DMEM (low glucose, pyruvate), 10% FBS (Gibco) and PenStep. The cells were harvested on the day of the assay, washed with HBSS+10 mM HEPES (pH 7.4)+0.1% BSA buffer and pre-incubated with varying concentrations of NCE. Each reaction contained 7000 cells and NCEs in HBSS+10 mM HEPES+0.1% BSA assay buffer along with PDE inhibitors IBMX and Ro 20-1724 (final concentration of each inhibitor […]). Following 15 min pre-incubation, the cells were treated with EC80 concentration of agonist PGE2 for 30 min to induce cAMP. Final volume of the assay was 6 μL and DMSO concentration was maintained at 1%. The reaction was terminated with the addition of cAMP labeled with the dye d2 in lysis buffer according to manufacturers' protocol. This was followed by the addition of the anti-cAMP antibody labeled with Cryptate according to the manufacturers' protocol. The reaction was incubated at room temperature in dark for 45 min and the plate was evaluated for fluorescence at 665 nm (FRET) and 620 nm (cryptate emission) on a Flexstation III microplate reader (Molecular Devices, Sunnyvale, Calif.) Ex max: 313 nm; Em1: 620 nm; Em2: 665 nm. Data was analyzed using GraphPad Prism 5 (GraphPad Software Inc., San Diego, Calif.) where cells treated with agonist (EC80) was normalized to 0% inhibition of hEP4 and cells treated with buffer (no agonist) was normalized to 100% inhibition of hEP4. IC50 of NCEs was generated using non-linear regression—Log(inhibitor) vs. response equation in GraphPad Prism 5.
In general terms: Time-resolved FRET reads energy transfer from a long-lived donor to a nearby acceptor.

T2 sequence (P35408 whole entry): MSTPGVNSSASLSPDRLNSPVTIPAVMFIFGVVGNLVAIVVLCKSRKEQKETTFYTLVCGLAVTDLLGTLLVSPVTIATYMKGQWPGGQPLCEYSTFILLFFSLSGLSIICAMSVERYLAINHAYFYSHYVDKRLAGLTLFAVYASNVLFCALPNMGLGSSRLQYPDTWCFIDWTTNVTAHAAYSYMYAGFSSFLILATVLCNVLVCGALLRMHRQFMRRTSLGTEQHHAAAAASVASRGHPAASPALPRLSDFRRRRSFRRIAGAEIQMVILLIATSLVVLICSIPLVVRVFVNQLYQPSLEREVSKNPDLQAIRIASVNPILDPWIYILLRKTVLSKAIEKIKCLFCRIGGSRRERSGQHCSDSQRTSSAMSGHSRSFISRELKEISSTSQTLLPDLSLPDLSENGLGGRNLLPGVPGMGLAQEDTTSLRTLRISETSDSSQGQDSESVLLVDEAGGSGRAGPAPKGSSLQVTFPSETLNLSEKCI
T1 sequence (P35408 whole entry): as above

In general, inhibition refers to the relative decrease from the control value, in per cent. At human EP4 receptor, `C[C@H](Nc1nccc2c1N(Cc1ccc(Cl)cc1)CCO2)c1ccc(C(=O)O)cc1` [Example B7, 4-[(1S)-1-[[4-[(4-chlorophenyl)methyl]-2,3-dihydropyrido[4,3-b][1,4]oxazin-5-yl]amino]ethyl]benzoic acid] gave an inhibition at 0.3 µM of 99%. In experiment [1], the inhibition at 1 µM worked out at 100%.
On the same counts, the results for `C[C@H](Nc1nccc2c1N(Cc1cccc(F)c1)CCO2)c1ccc(C(=O)O)cc1` [Example B8, 4-[(1S)-1-[[4-[(3-fluorophenyl)methyl]-2,3-dihydropyrido[4,3-b][1,4]oxazin-5-yl]amino]ethyl]benzoic acid] are 97% and 100%.
Molecule `C[C@H](Nc1nccc2c1N(Cc1ccc(F)cc1)CCO2)c1ccc(C(=O)O)cc1` [Example B9, 4-[(1S)-1-[[4-[(4-fluorophenyl)methyl]-2,3-dihydropyrido[4,3-b][1,4]oxazin-5-yl]amino]ethyl]benzoic acid] had an inhibition at 0.3 µM on human EP4 receptor of 97%. The inhibition at 1 µM in experiment [1] was found to be 100%.
The matching figures for `Cc1cccc(CN2CCOc3ccnc(N[C@@H](C)c4ccc(C(=O)O)cc4)c32)c1` [Example B10, 4-[(1S)-1-[[4-(m-tolylmethyl)-2,3-dihydropyrido[4,3-b][1,4]oxazin-5-yl]amino]ethyl]benzoic acid]: 97% and 100%.
The matching figures for `Cc1ccc(CN2CCOc3ccnc(N[C@@H](C)c4ccc(C(=O)O)cc4)c32)cc1` [Example B11, 4-[(1S)-1-[[4-(p-tolylmethyl)-2,3-dihydropyrido[4,3-b][1,4]oxazin-5-yl]amino]ethyl]benzoic acid]: 95% and 100%.
Regarding `COc1cccc(CN2CCOc3ccnc(N[C@@H](C)c4ccc(C(=O)O)cc4)c32)c1` [Example B12, 4-[(1S)-1-[[4-[(3-methoxyphenyl)methyl]-2,3-dihydropyrido[4,3-b][1,4]oxazin-5-yl]amino]ethyl]benzoic acid], at human EP4 receptor, the inhibition at 0.3 µM is 98%. The same molecule registered an inhibition at 1 µM in experiment [1] of 100%.
For `C[C@H](Nc1nccc2c1N(Cc1cc(F)cc(F)c1)CCO2)c1ccc(C(=O)O)cc1` [Example B13, 4-[(1S)-1-[[4-[(3,5-difluorophenyl)methyl]-2,3-dihydropyrido[4,3-b][1,4]oxazin-5-yl]amino]ethyl]benzoic acid], the inhibition at 0.3 µM on human EP4 receptor stood at 92%. In experiment [1], testing at 1 µM gave an inhibition of 100%.
On the same counts, the results for `C[C@H](Nc1nccc2c1N(Cc1cccc(C(F)(F)F)c1)CCO2)c1ccc(C(=O)O)cc1` [Example B14, 4-[(1S)-1-[[4-[[3-(trifluoromethyl)phenyl]methyl]-2,3-dihydropyrido[4,3-b][1,4]oxazin-5-yl]amino]ethyl]benzoic acid] are 93% and 100%.
On the same counts, the results for `COc1ccc(CN2CCOc3ccnc(N[C@@H](C)c4ccc(C(=O)O)cc4)c32)cc1` [Example B15, 4-[(1S)-1-[[4-[(4-methoxyphenyl)methyl]-2,3-dihydropyrido[4,3-b][1,4]oxazin-5-yl]amino]ethyl]benzoic acid] are 98% and 99%.
The matching figures for `O=C(O)c1ccc(C2(Nc3nccc4c3N(Cc3cccc(F)c3)CCO4)CC2)cc1` [Example B16, 4-[1-[[4-[(3-fluorophenyl)methyl]-2,3-dihydropyrido[4,3-b][1,4]oxazin-5-yl]amino]cyclopropyl]benzoic acid]: 93% and 88%.
As for `O=C(O)c1ccc(C2(Nc3nccc4c3N(Cc3cc(F)cc(F)c3)CCO4)CC2)cc1` [Example B17, 4-[1-[[4-[(3,5-difluorophenyl)methyl]-2,3-dihydropyrido[4,3-b][1,4]oxazin-5-yl]amino]cyclopropyl]benzoic acid], the inhibition at 0.3 µM on human EP4 receptor is 96%. Besides, at 1 µM the inhibition in experiment [1] was 86%.
On the same counts, the results for `O=C(O)c1ccc(C2(Nc3nccc4c3N(Cc3ccc(F)cc3)CCO4)CC2)cc1` [Example B18, 4-[1-[[4-[(4-fluorophenyl)methyl]-2,3-dihydropyrido[4,3-b][1,4]oxazin-5-yl]amino]cyclopropyl]benzoic acid] are 93% and 79%.
On the same counts, the results for `O=C(O)c1ccc(C2(Nc3nccc4c3N(Cc3ccc(Cl)cc3)CCO4)CC2)cc1` [Example B19, 4-[1-[[4-[(4-chlorophenyl)methyl]-2,3-dihydropyrido[4,3-b][1,4]oxazin-5-yl]amino]cyclopropyl]benzoic acid] are 92% and 81%.
On the same counts, the results for `O=C(O)c1ccc(C2(Nc3nccc4c3N(Cc3ccc(C(F)(F)F)cc3)CCO4)CC2)cc1` [Example B20, 4-[1-[[4-[[4-(trifluoromethyl)phenyl]methyl]-2,3-dihydropyrido[4,3-b][1,4]oxazin-5-yl]amino]cyclopropyl]benzoic acid] are 92% and 92%.
`COc1ccc(CN2CCOc3ccnc(NC4(c5ccc(C(=O)O)cc5)CC4)c32)cc1` [Example B21, 4-[1-[[4-[(4-methoxyphenyl)methyl]-2,3-dihydropyrido[4,3-b][1,4]oxazin-5-yl]amino]cyclopropyl]benzoic acid] registered an inhibition at 0.3 µM at human EP4 receptor of 87%. The same molecule gave an inhibition at 1 µM in experiment [1] of 87%.
In turn, `O=C(O)c1ccc(C2(Nc3nccc4c3N(Cc3ccccc3)CCO4)CC2)cc1` [Example B22, 4-[1-[(4-benzyl-2,3-dihydropyrido[4,3-b][1,4]oxazin-5-yl)amino]cyclopropyl]benzoic acid] displayed an inhibition at 0.3 µM on human EP4 receptor of 80%. This molecule returned an inhibition at 1 µM in experiment [1] of 90%.
Turning to `COc1cccc(CN2CCOc3ccnc(NC4(c5ccc(C(=O)O)cc5)CC4)c32)c1` [Example B23, 4-[1-[[4-[(3-methoxyphenyl)methyl]-2,3-dihydropyrido[4,3-b][1,4]oxazin-5-yl]amino]cyclopropyl]benzoic acid], on human EP4 receptor, the inhibition at 0.3 µM amounted to 100%. The inhibition at 1 µM in experiment [1] was 74%.
On the same counts, the results for `O=C(O)c1ccc(C2(Nc3nccc4c3N(Cc3cccc(Cl)c3)CCO4)CC2)cc1` [Example B24, 4-[1-[[4-[(3-chlorophenyl)methyl]-2,3-dihydropyrido[4,3-b][1,4]oxazin-5-yl]amino]cyclopropyl]benzoic acid acid] are 100% and 71%.
